d = 2'-deoxy (DNA); r = 2'-OH (RNA)
How the values were obtained:
Assay type in all cases: cell-based
SKNAS cells [1] = assay: Cyclophosphamide IC50 in siRNA-transfected cells, Cell Titer Glo 2.0 viability (Example 7)
Description: (§1) GPC2 mRNA expression was reduced with the indicated siRNAs and changes in cell viability were assessed in multiple neuroblastoma cell lines. Cells were transfected with either a control siRNA or with GPC2 siRNA sequences 3, 5 or 7 from Table 7 using the RNAiMAX Lipofectamine kit (Invitrogen, Carlsbad, Calif.) as previously described in 96 wells for viability assays. Cyclophosphamide was added at increasing concentrations (0-20 uM) to transfected cells at 24 hr post transfection. Following a 72 hour incubation period, viability measurements were made using Cell Titer Glo 2.0.

CHLA-172 cells = assay: as above
Description: as §1

KELLY cells [2] = assay: as above
Description: as §1

CHLA-136 cells = assay: as above
Description: as §1

SKNAS cells [3] = assay: Cell viability after siRNA transfection, Cell Titer Glo 2.0 (Example 3); conditions: SKNAS (Neuroblastoma); 96 hour incubation
Description: (§2) GPC2 mRNA knockdown and changes in cell viability were assessed in multiple cancer cell lines. Cells were transfected with either a scrambled control siRNA or with GPC2 siRNA sequence 3 or sequence 5 from Table 7 using the RNAiMAX Lipofectamine kit (Invitrogen, Carlsbad, Calif.) as previously described in Example 2, either in 96 well format (for viability assays) or 6 well format (for knockdown assessment). Following a 96 hour incubation period, cells were washed and the viability measurement was assessed using Cell Titer Glo 2.0. Total RNA was isolated from the 6 well plate samples to determine knockdown efficiency.

IMR32 cells = assay: as above; conditions: IMR32 (Neuroblastoma); 96 hour incubation
Description: as §2

SNU16 cells [4] = assay: as above; conditions: SNU16 (Gastric); 96 hour incubation
Description: as §2

MCF7 cells = assay: as above; conditions: MCF7 (Breast); 96 hour incubation
Description: as §2

RH41 cells = assay: as above; conditions: RH41 (Rhabdomyosarcoma); 96 hour incubation
Description: as §2

TC71 cells [5] = assay: as above; conditions: TC71 (Ewing's Sarcoma); 96 hour incubation
Description: as §2

RH30 cells = assay: as above; conditions: RH30 (Rhabdomyosarcoma); 96 hour incubation
Description: as §2

COV362 cells = assay: as above; conditions: COV362 (Ovarian Carcinoma); 96 hour incubation
Description: as §2

TC32 cells = assay: as above; conditions: TC32 (Ewing's Sarcoma); 96 hour incubation
Description: as §2

GIST-T1 cells [6] = assay: as above; conditions: GIST-T1 (Gastrointestinal Stromal); 96 hour incubation
Description: as §2

CHP212 cells [7] = assay: as above; conditions: CHP212 (Neuroblastoma); 96 hour incubation
Description: as §2

TOV112D cells [8] = assay: as above; conditions: TOV112D (Ovarian Carcinoma); 96 hour incubation
Description: as §2

SKNAS cells [9] = assay: Topotecan IC50 in siRNA-transfected cells, Cell Titer Glo 2.0 viability (Example 10)
Description: as §1, with “reduced” for “reduced with the indicated siRNAs”, “sequences” for “sequences 3,”, “Topotecan” for “Cyclophosphamide”, “(0-5” for “(0-20”, “hours” for “hr”

SH-SY5Y cells [10] = assay: as above
Description: as §1, with “reduced” for “reduced with the indicated siRNAs”, “sequences” for “sequences 3,”, “Topotecan” for “Cyclophosphamide”, “(0-5” for “(0-20”, “hours” for “hr”

KELLY cells [11] = assay: as above
Description: as §1, with “reduced” for “reduced with the indicated siRNAs”, “sequences” for “sequences 3,”, “Topotecan” for “Cyclophosphamide”, “(0-5” for “(0-20”, “hours” for “hr”

SK-N-BE2 cells = assay: as above
Description: as §1, with “reduced” for “reduced with the indicated siRNAs”, “sequences” for “sequences 3,”, “Topotecan” for “Cyclophosphamide”, “(0-5” for “(0-20”, “hours” for “hr”

CHP212 cells [12] = assay: as above
Description: as §1, with “reduced” for “reduced with the indicated siRNAs”, “sequences” for “sequences 3,”, “Topotecan” for “Cyclophosphamide”, “(0-5” for “(0-20”, “hours” for “hr”

CHLA-90 cells [13] = assay: as above
Description: as §1, with “reduced” for “reduced with the indicated siRNAs”, “sequences” for “sequences 3,”, “Topotecan” for “Cyclophosphamide”, “(0-5” for “(0-20”, “hours” for “hr”

SH-SY5Y cells [14] = assay: Cisplatin IC50 in siRNA-transfected cells, Cell Titer Glo 2.0 viability (Example 5)
Description: (§3) GPC2 mRNA was reduced using the indicated siRNAs and changes in cell viability were assessed in multiple cancer cell lines, in combination with Cisplatin treatment. Cells were transfected with either a scrambled control siRNA or with GPC2 siRNA sequences 3 or 5 from Table 7 using the RNAiMAX Lipofectamine kit (Invitrogen, Carlsbad, Calif.), as previously described, in either in 96 well (for viability assays) or 6 well format (for total RNA). Cisplatin was added at increasing concentrations (0 to 30 uM) to transfected cells at 24 hours post transfection. Following a 72 hour incubation period, cell viability was measured using Cell Titer Glo 2.0. Total RNA samples were also isolated to measure knockdown efficiency.

SNU16 cells [15] = assay: as above
Description: as §3

TC71 cells [16] = assay: as above
Description: as §3

GIST-T1 cells [17] = assay: as above
Description: as §3

CHP212 cells [18] = assay: as above
Description: as §3

TOV112D cells [19] = assay: as above
Description: as §3

CHLA-90 cells [20] = assay: as above
Description: as §3

With “GPC2 siRNA 5: siRNA duplex: sense CUCAGUAGCCCAGCACUCU[dT][dT] (SEQ ID NO: 211), anti-sense AGAGUGCUGGGCUACUGAG[dT][dT] (SEQ ID NO: 212) (sense CUCAGUAGCCCAGCACUCUTT; antisense AGAGUGCUGGGCUACUGAGTT; sugars from the 5' end r19 d2, backbone not given here; listed as Homo sapiens)” the “Data Summary: effect of knockdown on sensitivity to cyclophosphamide” value (“Data Summary: effect … to cyclophosphamide” for short) (SKNAS cells [1]; SKNAS) was “increases sensitivity to”, the IC50 (SKNAS cells [1]; SKNAS cells transfected with the labelled siRNA, cyclophosphamide added 24 hr post transfection, 72 hour incubation) was 480 nM and the “Data Summary: effect … to cyclophosphamide” value (CHLA-172 cells; CHLA-172) was “increases sensitivity to”. The IC50 (CHLA-172 cells; CHLA-172 cells transfected with the labelled siRNA, cyclophosphamide added 24 hr post transfection, 72 hour incubation) was 10000 nM, the “Data Summary: effect … to cyclophosphamide” value (KELLY cells [2]; KELLY) was “increases sensitivity to” and the IC50 (KELLY cells [2]; KELLY cells transfected with the labelled siRNA, cyclophosphamide added 24 hr post transfection, 72 hour incubation) was 1000 nM. The “Data Summary: effect … to cyclophosphamide” value (CHLA-136 cells; CHLA-136) was “not increase sensitivity”, the IC50 (CHLA-136 cells; CHLA-136 cells transfected with the labelled siRNA, cyclophosphamide added 24 hr post transfection, 72 hour incubation) was 5000 nM and the “% Viability” value (SKNAS cells [3]) was 56.14%. The “% Viability” value (IMR32 cells) was 63.62%, the “% Viability” value (SNU16 cells [4]) was 89.01% and the “% Viability” value (MCF7 cells) was 67.11%. For the same substance, the “% Viability” value (RH41 cells) was 31.32%, the “% Viability” value (TC71 cells [5]) was 100.92% and the “% Viability” value (RH30 cells) was 46.03%. For the same substance, the “% Viability” value (COV362 cells) was 94.27%, the “% Viability” value (TC32 cells) was 77.18% and the “% Viability” value (GIST-T1 cells [6]) was 40.13%. For the same substance, the “% Viability” value (CHP212 cells [7]) was 64.46%, the “% Viability” value (TOV112D cells [8]) was 81.15% and the “Data Summary: effect of knockdown on sensitivity to topotecan” value (“Data Summary: effect … to topotecan” below) (SKNAS cells [9]; SKNAS) was “increases sensitivity to topotecan”. For the same substance, the IC50 (SKNAS cells [9]; SKNAS cells transfected with the labelled siRNA, topotecan added 24 hours post transfection, 72 hour incubation) was 20 nM, the “Data Summary: effect … to topotecan” value (SH-SY5Y cells [10]; SH-SY5Y) was “not increase sensitivity to topotecan” and the IC50 (SH-SY5Y cells [10]; SH-SY5Y cells transfected with the labelled siRNA, topotecan added 24 hours post transfection, 72 hour incubation) was 40 nM. The “Data Summary: effect … to topotecan” value (KELLY cells [11]; KELLY) was “not increase sensitivity to topotecan”, the IC50 (KELLY cells [11]; KELLY cells transfected with the labelled siRNA, topotecan added 24 hours post transfection, 72 hour incubation) was 60 nM and the “Data Summary: effect … to topotecan” value (SK-N-BE2 cells; SK-N-BE2) was “not increase sensitivity to topotecan”. The IC50 (SK-N-BE2 cells; SK-N-BE2 cells transfected with the labelled siRNA, topotecan added 24 hours post transfection, 72 hour incubation) was 10 nM, the “Data Summary: effect … to topotecan” value (CHP212 cells [12]; CHP212) was “not increase sensitivity to topotecan” and the IC50 (CHP212 cells [12]; CHP212 cells transfected with the labelled siRNA, topotecan added 24 hours post transfection, 72 hour incubation) was 10 nM. For the same substance, the “Data Summary: effect … to topotecan” value (CHLA-90 cells [13]; CHLA-90) was “not increase sensitivity to topotecan”, the IC50 (CHLA-90 cells [13]; CHLA-90 cells transfected with the labelled siRNA, topotecan added 24 hours post transfection, 72 hour incubation) was 110 nM and the “Data Summary: effect of knockdown on sensitivity to cisplatin” value (from here on “Data Summary: effect … to cisplatin”) (SH-SY5Y cells [14]; SH-SY5Y) was “increases sensitivity to”. For the same substance, the IC50 (SH-SY5Y cells [14]; SH-SY5Y cells transfected with the labelled siRNA, cisplatin added 24 hours post transfection, 72 hour incubation) was 9300 nM, the “Data Summary: effect … to cisplatin” value (SNU16 cells [15]; SNU16) was “does not increase” and the IC50 (SNU16 cells [15]; SNU16 cells transfected with the labelled siRNA, cisplatin added 24 hours post transfection, 72 hour incubation) was 16000 nM. For the same substance, the “Data Summary: effect … to cisplatin” value (TC71 cells [16]; TC71) was “does not increase”, the IC50 (TC71 cells [16]; TC71 cells transfected with the labelled siRNA, cisplatin added 24 hours post transfection, 72 hour incubation) was 1400 nM and the “Data Summary: effect … to cisplatin” value (GIST-T1 cells [17]; GIST-T1) was “increases sensitivity to”. For the same substance, the IC50 (GIST-T1 cells [17]; GIST-T1 cells transfected with the labelled siRNA, cisplatin added 24 hours post transfection, 72 hour incubation) was 1000 nM, the “Data Summary: effect … to cisplatin” value (CHP212 cells [18]; CHP212) was “increases sensitivity to” and the IC50 (CHP212 cells [18]; CHP212 cells transfected with the labelled siRNA, cisplatin added 24 hours post transfection, 72 hour incubation) was 6000 nM. The “Data Summary: effect … to cisplatin” value (TOV112D cells [19]; TOV112D) was “does not increase”, the IC50 (TOV112D cells [19]; TOV112D cells transfected with the labelled siRNA, cisplatin added 24 hours post transfection, 72 hour incubation) was 7000 nM and the “Data Summary: effect … to cisplatin” value (CHLA-90 cells [20]; CHLA-90) was “increases sensitivity to”. The IC50 (CHLA-90 cells [20]; CHLA-90 cells transfected with the labelled siRNA, cisplatin added 24 hours post transfection, 72 hour incubation) was 15000 nM.
